Results published in ChEMBL document CHEMBL1201862, “PubChem BioAssay data set” (2004).
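A five-concentration, 48-hour dose response in 96-well plates underlies each endpoint, interpolated linearly between surrounding concentrations. The concentration for 50% growth inhibition is given as GI50.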 Calls of active or inactive are those of the source. Cut-off read from the data, not from the text of the source: active = GI50 up to about 1.1 µM and inactive = higher.

What was measured:
Test in all cases: growth of human tumour cells (NCI), 48 h
[1] = test system: DU-145
[2] = test system: HCC 2998
[3] = test system: HL-60
[4] = test system: HOP-92
[5] = test system: Hs-578T
[6] = test system: K562
[7] = test system: MDA-N
[8] = test system: MOLT-4
[9] = test system: NCI-H460
[10] = test system: OVCAR-4
[11] = test system: SF-539
[12] = test system: SK-MEL-28
[13] = test system: SK-MEL-5
[14] = test system: U-251
[15] = test system: UACC-257
[16] = test system: UACC-62
[17] = test system: UO-31

SMILES	GI50 [1]	GI50 [2]	GI50 [3]	GI50 [4]	GI50 [5]	GI50 [6]	GI50 [7]	GI50 [8]	GI50 [9]	GI50 [10]	GI50 [11]	GI50 [12]	GI50 [13]	GI50 [14]	GI50 [15]	GI50 [16]	GI50 [17]
CC(=O)Nc1cc2ccc(=O)oc2cc1Cl	> 100 µM (inactive)	> 100 µM (inactive)	> 100 µM (inactive)	> 100 µM (inactive)	> 100 µM (inactive)	> 100 µM (inactive)	> 100 µM (inactive)	> 100 µM (inactive)	> 100 µM (inactive)	> 100 µM (inactive)	> 100 µM (inactive)	> 100 µM (inactive)	> 100 µM (inactive)	> 100 µM (inactive)	> 100 µM (inactive)	> 100 µM (inactive)	> 100 µM (inactive)
C=C1CC[C@@H](CCC2CCC3(OC2)O[C@]2(O)CC[C@@]3(C)OC2(C)C)C(C)(C)[C@H]1C/C=C1\CCOC1=O (some centres not stated)	12.5 µM (inactive)	10.9 µM (inactive)	1.36 µM (inactive)	10.5 µM (inactive)	20.5 µM (inactive)	0.0798 µM (active)	20 µM (inactive)	1.97 µM (inactive)	16.4 µM (inactive)	12.3 µM (inactive)	5.3 µM (inactive)	26.1 µM (inactive)	0.0244 µM (active)	15.1 µM (inactive)	0.507 µM (active)	27 µM (inactive)	30.3 µM (inactive)
C/C(Cl)=N/OC(=O)Nc1ccc(F)c([N+](=O)[O-])c1	17.3 µM (inactive)	37.3 µM (inactive)	1.94 µM (inactive)	5.4 µM (inactive)	0.457 µM (active)	2.57 µM (inactive)	16 µM (inactive)	1.78 µM (inactive)	4.75 µM (inactive)	7.36 µM (inactive)	33.3 µM (inactive)	17.6 µM (inactive)	14 µM (inactive)	20 µM (inactive)	20.7 µM (inactive)	21.3 µM (inactive)	8.05 µM (inactive)
CC(=O)OCC1OC(n2cnc3nc(Br)[nH]c(=O)c32)C(OC(C)=O)C1OC(C)=O (configuration not stated)	> 100 µM (inactive)	> 100 µM (inactive)	> 100 µM (inactive)	> 100 µM (inactive)	> 100 µM (inactive)	> 100 µM (inactive)	> 100 µM (inactive)	> 100 µM (inactive)	> 100 µM (inactive)	> 100 µM (inactive)	> 100 µM (inactive)	–	> 100 µM (inactive)	> 100 µM (inactive)	> 100 µM (inactive)	> 100 µM (inactive)	> 100 µM (inactive)
Cc1cc(-c2nc3cc(F)ccc3s2)ccc1NC(=O)[C@@H](N)CCCCN	13.9 µM (inactive)	0.735 µM (active)	2.02 µM (inactive)	13.4 µM (inactive)	3.08 µM (inactive)	2.17 µM (inactive)	1.77 µM (inactive)	1.3 µM (inactive)	0.132 µM (active)	2.12 µM (inactive)	4.99 µM (inactive)	18.9 µM (inactive)	13.4 µM (inactive)	1.88 µM (inactive)	5.71 µM (inactive)	9.55 µM (inactive)	3.29 µM (inactive)
COc1cc2c(c3c1c(=O)c1ccccc1n3C)C=CC1(CCCCC1)O2	> 9.1 µM (inactive)	4.59 µM (inactive)	3.88 µM (inactive)	3.24 µM (inactive)	2.54 µM (inactive)	1.56 µM (inactive)	2.96 µM (inactive)	3.11 µM (inactive)	3.82 µM (inactive)	4.65 µM (inactive)	1.57 µM (inactive)	4.8 µM (inactive)	2.15 µM (inactive)	4.03 µM (inactive)	> 7.73 µM (inactive)	4.14 µM (inactive)	0.1 µM (active)
NC(=S)N/N=C\c1nccc2ccccc12	0.404 µM (active)	3.04 µM (inactive)	0.327 µM (active)	0.264 µM (active)	10.7 µM (inactive)	0.731 µM (active)	0.429 µM (active)	0.226 µM (active)	0.267 µM (active)	0.309 µM (active)	0.155 µM (active)	0.36 µM (active)	0.143 µM (active)	0.281 µM (active)	1.42 µM (inactive)	0.136 µM (active)	0.36 µM (active)
CC(=NNC(=S)Nc1cccc(C)c1)c1cccc(C(C)=NNC(=S)Nc2cccc(C)c2)n1	> 100 µM (inactive)	43.3 µM (inactive)	17.3 µM (inactive)	17.1 µM (inactive)	> 100 µM (inactive)	17.1 µM (inactive)	42 µM (inactive)	15 µM (inactive)	12.8 µM (inactive)	9.95 µM (inactive)	14.6 µM (inactive)	> 100 µM (inactive)	8.89 µM (inactive)	21.5 µM (inactive)	0.0198 µM (active)	15.2 µM (inactive)	16 µM (inactive)
NCCCCC(N)C(=O)N1CCN(c2nc(N3CCCC3)c3nc(Cl)c(NCc4ccccc4)nc3n2)CC1 (configuration not stated)	16.9 µM (inactive)	19.1 µM (inactive)	17 µM (inactive)	10.3 µM (inactive)	19.4 µM (inactive)	21.9 µM (inactive)	17.7 µM (inactive)	24.5 µM (inactive)	17.5 µM (inactive)	23.2 µM (inactive)	18.5 µM (inactive)	20.7 µM (inactive)	18.1 µM (inactive)	18.9 µM (inactive)	18.2 µM (inactive)	17.9 µM (inactive)	17.5 µM (inactive)
COc1cc(/C=C2\N=C(c3ccccc3)N(/N=C/c3cc4cc(C)ccc4nc3Cl)C2=O)ccc1O	65.6 µM (inactive)	35.5 µM (inactive)	24.9 µM (inactive)	31.6 µM (inactive)	40.6 µM (inactive)	45.8 µM (inactive)	15.9 µM (inactive)	23.4 µM (inactive)	30.5 µM (inactive)	43.8 µM (inactive)	35.2 µM (inactive)	> 100 µM (inactive)	37.2 µM (inactive)	35.7 µM (inactive)	49.8 µM (inactive)	37.7 µM (inactive)	32.5 µM (inactive)
COC1=C(N2CC2)C(=O)c2nc3n(c2C1=O)CCC3	0.372 µM (active)	0.679 µM (active)	0.21 µM (active)	3.33 µM (inactive)	5.09 µM (inactive)	0.271 µM (active)	1.38 µM (inactive)	0.306 µM (active)	0.45 µM (active)	0.22 µM (active)	2.04 µM (inactive)	4.01 µM (inactive)	1.29 µM (inactive)	1.4 µM (inactive)	–	1.54 µM (inactive)	0.224 µM (active)
COc1ccc(/N=N/c2c(C)c(C#N)c(=S)n(C3OC(COC(C)=O)C(OC(C)=O)C(OC(C)=O)C3OC(C)=O)c2C)cc1 (configuration not stated)	> 100 µM (inactive)	> 100 µM (inactive)	> 100 µM (inactive)	24.6 µM (inactive)	23.3 µM (inactive)	> 100 µM (inactive)	> 100 µM (inactive)	> 100 µM (inactive)	> 100 µM (inactive)	> 100 µM (inactive)	> 100 µM (inactive)	> 100 µM (inactive)	> 100 µM (inactive)	8.09 µM (inactive)	> 100 µM (inactive)	> 100 µM (inactive)	> 100 µM (inactive)
CNC(=O)CCCN(C)C(=O)CCCCC(=O)N(C)C	> 58.5 µM (inactive)	> 51.1 µM (inactive)	26.7 µM (inactive)	> 60.1 µM (inactive)	> 56.9 µM (inactive)	> 55.2 µM (inactive)	> 60.8 µM (inactive)	41.6 µM (inactive)	> 56 µM (inactive)	> 100 µM (inactive)	> 59.8 µM (inactive)	> 54.2 µM (inactive)	36.6 µM (inactive)	> 58.2 µM (inactive)	> 59.3 µM (inactive)	> 57.4 µM (inactive)	> 61 µM (inactive)
O=C1OCC2=C1C(c1ccc(Cl)cc1)c1cc3c(cc1O2)OCO3 (configuration not stated)	4.15 µM (inactive)	4.1 µM (inactive)	2.21 µM (inactive)	> 35.8 µM (inactive)	4.15 µM (inactive)	1.82 µM (inactive)	0.902 µM (active)	2.74 µM (inactive)	3.34 µM (inactive)	84.9 µM (inactive)	2.69 µM (inactive)	6.21 µM (inactive)	3.76 µM (inactive)	–	> 21.8 µM (inactive)	4.36 µM (inactive)	10.1 µM (inactive)
c1cc2nsnc2c2c[nH]cc12	> 100 µM (inactive)	> 100 µM (inactive)	67.1 µM (inactive)	28.1 µM (inactive)	48.1 µM (inactive)	49.1 µM (inactive)	71.4 µM (inactive)	85.3 µM (inactive)	86.3 µM (inactive)	> 100 µM (inactive)	> 100 µM (inactive)	> 100 µM (inactive)	61.4 µM (inactive)	–	> 100 µM (inactive)	42.9 µM (inactive)	25.5 µM (inactive)
CC(=O)OC12c3ccccc3-c3ccccc3C1C(C(=O)O)C2(Cl)C(=O)O (configuration not stated)	> 10 µM (inactive)	> 10 µM (inactive)	> 10 µM (inactive)	> 10 µM (inactive)	> 10 µM (inactive)	> 10 µM (inactive)	> 10 µM (inactive)	> 10 µM (inactive)	> 10 µM (inactive)	> 10 µM (inactive)	> 10 µM (inactive)	> 10 µM (inactive)	> 10 µM (inactive)	> 10 µM (inactive)	> 10 µM (inactive)	–	> 10 µM (inactive)
